Measured values as given in US20250213700A1, “COMPOUNDS, COMPOSITIONS, AND METHODS FOR CELL-SPECIFIC PHARMACOLOGY” (Duke University, priority 2022, published 2025).

Test system: D1-Cre mice with +HTP or ddHTP in left dorsal striatum
Assay: open-field turning (locomotor) assay, unilateral delivery to dSPNs of dorsal striatum
Format: in vivo, mouse
Conditions: for open-field turning, +HTP mice / open-field turning, ddHTP mice: 10:1 mixture with Alexa488.1DART.2 infused into left dorsal striatum
Procedure: Mice: For behavioral experiments, mice strains included Drd1A-Cre (GENSAT EY262). For slice experiments, Drd1A-Cre were used. Mice were singly housed post-surgery, in a 12-hour reverse light cycle, with food and water provided ad libitum. Recombinant adeno-associated viral (rAAV) vectors.
Behavioral assays: Assays were performed at least 3 weeks after viral injection to allow for recombinant protein expression. Mice were acclimated to head-fixation for 3 consecutive days prior to behavioral experiments. Reagents were infused into the brain via the cranial cannula. Immediately following infusion, mice were placed into open-field chambers (27 cm×27 cm) in the dark, and behavior was recorded using infrared video.
These advances were combined in a mouse locomotor assay. AAV-DIO-^+HTPGPI or AAV-DIO-ddHTPGPI were expressed in the left dorsal striatum of D1-Cre mice, and implanted a unilateral cannula. Three weeks later, a baseline open-field behavior (saline infusion) was obtained; followed one week later by infusion of a 10:1 mixture of YM90K.1DART.2/Alexa488.1DART.2 (FIG. 3A). Mice were perfused for histology 24 hrs later, and quantitative measurement of the integrated Alexa capture over the dorsal striatum was performed. The magnitude of open-field turning vs dye capture (FIG. 3C) was then plotted A control was also performed as above using DART.1 and non-DART fluorescent dye (fluorogold) (FIG. 3B and FIG. 3D). Three points merit emphasis. […] Second, the data yielded a tight correlation between behavioral effects and histology; in particular the four animals with the weakest behavioral impact corresponded to those with little dye capture, providing an unbiased parameter with which to exclude these animals due to technical failure. Such a correlation was not seen with the original technology, despite efforts to estimate cannula patency with a non-DART fluorescent tracer. Third, in these behaving mice, YM90K.1DART.2 was substantially more efficacious than its predecessor, driving a 3-fold larger impact in a locomotor assay following unilateral delivery to dSPNs of the dorsal striatum (FIG. 3E and FIG. 3F). Experiments in acute striatal brain slice confirmed the performance boost afforded by DART.2. Low-dose, YM90K.1DART.2 produced rapid AMPAR antagonism on +HTP neurons, achieving half-block after only 5 min of a 0.3 µM dose. This represents a ˜10-fold acceleration in comparison to its predecessor, which required 15 min of a 1 µM dose to achieve a similar block. Neither reagent produced any measurable impact on −HTP or ddHTP neurons at these doses. However, only YM90K.1DART.2 offered kinetics fast enough for routine slice physiology experiments.

SMILES: COc1cc(CCCCl)ccc1CCOCCNC(=O)c1ccc(CNC(=O)CCOCCOCCOCCOCCOCCOCCOCCOCCOCCOCCOCCOCCOCCOCCOCCOCCOCCOCCOCCOCCOCCOCCOCCOCCOCCOCCOCCOCCOCCOCCOCCOCCOCCOCCOCCOCCn2cc(COCCOCCOCCOCCOCCOCCNC(=O)CCCn3c(=O)c(=O)[nH]c4cc([N+](=O)[O-])c(-n5ccnc5)cc43)nn2)cc1 [YM90K.1DART.2]
- open-field turning, +HTP mice: a turning bias in +HTP mice was seen
- open-field turning, ddHTP mice: no turning bias
- open-field turning, +HTP mice (listed as YM90K.1^DART.2): turned in proportion to dye capture
- open-field turning, ddHTP mice (listed as YM90K.1^DART.2): little turning
- impact in locomotor assay / behavioral potency in comparison to predecessor (unilateral delivery to dSPNs of the dorsal striatum): 3 fold
